US6743824B2 (Somerset Pharmaceuticals, Inc., priority 1996, dated 2004)
Where a name gives a salt, the structure may show the parent alone.

How the values were obtained:
[1] = test system: peripheral neuropathy caused by vincristine; assay: Treatment of peripheral neuropathy caused by vincristine (Example 1); format: in vivo, human; details: patient with endometrial carcinoma on vincristine 1.4 mg/m^2 weekly; 5 mg orally twice a day
Experimental: A patient with endometrial carcinoma is given an intravenous bolus injection of vincristine at a dose of 1.4 mg/m^2 weekly. The toxic effects of vincristine cause sensory loss in the fingers and toes, a loss of the ankle jerk reflex, weakness and postural hypotension. […] During this time, therapy with vincristine is continued and evaluations of both tumor response and toxic side effects are carried out by a physician on a weekly basis. After continued therapy, symptoms associated with peripheral neuropathy subside. At this point, the dosage of vincristine is increased to 1.8 mg/m^2 and the process is continued.

spinal motor neurons = details: rat; Iwasaki et al. 1994; cited from earlier work
[2] = test system: cultured spinal cord neuron; details: Iwasaki et al. 1994; cited from earlier work
[3] = test system: axotomized rat facial motor neurons; details: Salo et al. 1992; cited from earlier work
retinal ganglion cells = details: rat optic nerve crush model; Buys et al. 1994; cited from earlier work
CNS neurons = details: toxins such as MPP+, kainic acid or DSP-4; cited from earlier work

Row | Structure (SMILES) | symptoms associated with peripheral neuropathy [1] | effect on axotomy-induced cell death in spinal motor neurons (spinal motor neurons) | neurite outgrowth [2] | rescue of axotomized facial motor neurons [3] | survival of retinal ganglion cells at risk of undergoing apoptosis (retinal ganglion cells) | survival of CNS neurons after exposure to chemical toxins (CNS neurons)
1 | C#CCN(C)[C@H](C)Cc1ccccc1 [selegiline hydrochloride] | subside |  |  |  |  | 
2 | C#CCN(C)C(C)Cc1ccccc1 (stereo not drawn) [selegiline, R-(−)-N-methyl-N-(prop-2-ynyl)-2-aminophenylpropane] |  | neuroprotective effect | enhance neurite outgrowth | capable of rescuing | increase the survival | increase the survival
